Assay results taken from patent US20150307938A1, “METHOD TO IDENTIFY A NOVEL CLASS OF IMMUNOLOGIC ADJUVANTS” (Lancell, L.L.C., priority 2011, published 2015).

Test system: skin
Assay: Affymetrix microarray of skin, DBP-4 hr and analogs vs. untreated; gene selection by log-2 fold change, Wilcoxon, Kendall tau (Tables 8, 9)
Type: in vivo, mouse

Compound: CCCCOC(=O)c1ccccc1C(=O)OCCCC [DBP, dibutylphthalate]
- Wilcoxon: Pigp (gene Pigp, NM_019543_at, DBP-4 hr vs. untreated): No
- Kendall: Pigp (gene Pigp, NM_019543_at, gene expression vs. output): Yes
- Wilcoxon: Pkp4 (gene Pkp4, NM_026361_at, DBP-4 hr vs. untreated): No
- Kendall: Pkp4 (gene Pkp4, NM_026361_at, gene expression vs. output): Yes
- Wilcoxon: Plk3 (gene Plk3, NM_013807_at, DBP-4 hr vs. untreated): No
- Kendall: Plk3 (gene Plk3, NM_013807_at, gene expression vs. output): Yes
- Wilcoxon: Polr2g (gene Polr2g, NM_026329_at, DBP-4 hr vs. untreated): No
- Kendall: Polr2g (gene Polr2g, NM_026329_at, gene expression vs. output): Yes
- Wilcoxon: Pparg (gene Pparg, NM_011146_at, DBP-4 hr vs. untreated): No
- Kendall: Pparg (gene Pparg, NM_011146_at, gene expression vs. output): Yes
- Wilcoxon: Ppp1r7 (gene Ppp1r7, NM_023200_at, DBP-4 hr vs. untreated): No
- Kendall: Ppp1r7 (gene Ppp1r7, NM_023200_at, gene expression vs. output): Yes
- Wilcoxon: Prokr1 (gene Prokr1, NM_021381_at, DBP-4 hr vs. untreated): No
- Kendall: Prokr1 (gene Prokr1, NM_021381_at, gene expression vs. output): Yes
- Wilcoxon: Ptpn1 (gene Ptpn1, NM_011201_at, DBP-4 hr vs. untreated): No
- Kendall: Ptpn1 (gene Ptpn1, NM_011201_at, gene expression vs. output): Yes
- Wilcoxon: Rabgef1 (gene Rabgef1, NM_019983_at, DBP-4 hr vs. untreated): No
- Kendall: Rabgef1 (gene Rabgef1, NM_019983_at, gene expression vs. output): Yes
- Wilcoxon: Rai12 (gene Rai12, NM_018740_at, DBP-4 hr vs. untreated): No
- Kendall: Rai12 (gene Rai12, NM_018740_at, gene expression vs. output): Yes
- Wilcoxon: Rbbp6 (gene Rbbp6, NM_011247_at, DBP-4 hr vs. untreated): No
- Kendall: Rbbp6 (gene Rbbp6, NM_011247_at, gene expression vs. output): Yes
- Wilcoxon: Rpl7l1 (gene Rpl7l1, NM_025433_at, DBP-4 hr vs. untreated): No
- Kendall: Rpl7l1 (gene Rpl7l1, NM_025433_at, gene expression vs. output): Yes
- Wilcoxon: Sema4d (gene Sema4d, NM_013660_at, DBP-4 hr vs. untreated): No
- Kendall: Sema4d (gene Sema4d, NM_013660_at, gene expression vs. output): Yes
- Wilcoxon: Siae (gene Siae, NM_011734_at, DBP-4 hr vs. untreated): No
- Kendall: Siae (gene Siae, NM_011734_at, gene expression vs. output): Yes
- Wilcoxon: Sirt1 (gene Sirt1, NM_019812_at, DBP-4 hr vs. untreated): No
- Kendall: Sirt1 (gene Sirt1, NM_019812_at, gene expression vs. output): Yes
- Wilcoxon: Slc9a3r1 (gene Slc9a3r1, NM_012030_at, DBP-4 hr vs. untreated): No
- Kendall: Slc9a3r1 (gene Slc9a3r1, NM_012030_at, gene expression vs. output): Yes
- Wilcoxon: Slc30a4 (gene Slc30a4, NM_011774_at, DBP-4 hr vs. untreated): No
- Kendall: Slc30a4 (gene Slc30a4, NM_011774_at, gene expression vs. output): Yes
- Wilcoxon: Slc35a1 (gene Slc35a1, NM_011895_at, DBP-4 hr vs. untreated): No
- Kendall: Slc35a1 (gene Slc35a1, NM_011895_at, gene expression vs. output): Yes
- Wilcoxon: Smarcb1 (gene Smarcb1, NM_011418_at, DBP-4 hr vs. untreated): No
- Kendall: Smarcb1 (gene Smarcb1, NM_011418_at, gene expression vs. output): Yes
- Wilcoxon: Srsf6 (gene Srsf6, NM_026499_at, DBP-4 hr vs. untreated): No
- Kendall: Srsf6 (gene Srsf6, NM_026499_at, gene expression vs. output): Yes
- Wilcoxon: Stx17 (gene Stx17, NM_026343_at, DBP-4 hr vs. untreated): No
- Kendall: Stx17 (gene Stx17, NM_026343_at, gene expression vs. output): Yes
- Wilcoxon: Tmed1 (gene Tmed1, NM_010744_at, DBP-4 hr vs. untreated): No
- Kendall: Tmed1 (gene Tmed1, NM_010744_at, gene expression vs. output): Yes
- Wilcoxon: Tmem208 (gene Tmem208, NM_025486_at, DBP-4 hr vs. untreated): No
- Kendall: Tmem208 (gene Tmem208, NM_025486_at, gene expression vs. output): Yes
- Wilcoxon: Tnfrsf1a (gene Tnfrsf1a, NM_011609_at, DBP-4 hr vs. untreated): No
- Kendall: Tnfrsf1a (gene Tnfrsf1a, NM_011609_at, gene expression vs. output): Yes
- Wilcoxon: Tnfrsf9 (gene Tnfrsf9, NM_011612_at, DBP-4 hr vs. untreated): No
- Kendall: Tnfrsf9 (gene Tnfrsf9, NM_011612_at, gene expression vs. output): Yes
- Wilcoxon: Trappc2l (gene Trappc2l, NM_021502_at, DBP-4 hr vs. untreated): No
- Kendall: Trappc2l (gene Trappc2l, NM_021502_at, gene expression vs. output): Yes
- Wilcoxon: Tril (gene Tril, NM_025817_at, DBP-4 hr vs. untreated): No
- Kendall: Tril (gene Tril, NM_025817_at, gene expression vs. output): Yes
- Wilcoxon: Trim12a (gene Trim12a, NM_023835_at, DBP-4 hr vs. untreated): No
- Kendall: Trim12a (gene Trim12a, NM_023835_at, gene expression vs. output): Yes
- Wilcoxon: Trip4 (gene Trip4, NM_019797_at, DBP-4 hr vs. untreated): No
- Kendall: Trip4 (gene Trip4, NM_019797_at, gene expression vs. output): Yes
- Wilcoxon: Trp63 (gene Trp63, NM_011641_at, DBP-4 hr vs. untreated): No
- Kendall: Trp63 (gene Trp63, NM_011641_at, gene expression vs. output): Yes
- Wilcoxon: Trpv2 (gene Trpv2, NM_011706_at, DBP-4 hr vs. untreated): No
- Kendall: Trpv2 (gene Trpv2, NM_011706_at, gene expression vs. output): Yes
- Wilcoxon: Tsn (gene Tsn, NM_011650_at, DBP-4 hr vs. untreated): No
- Kendall: Tsn (gene Tsn, NM_011650_at, gene expression vs. output): Yes
- Wilcoxon: Ufc1 (gene Ufc1, NM_025388_at, DBP-4 hr vs. untreated): No
- Kendall: Ufc1 (gene Ufc1, NM_025388_at, gene expression vs. output): Yes
- Wilcoxon: Ulk2 (gene Ulk2, NM_013881_at, DBP-4 hr vs. untreated): No
- Kendall: Ulk2 (gene Ulk2, NM_013881_at, gene expression vs. output): Yes
- Wilcoxon: Wbp1 (gene Wbp1, NM_016757_at, DBP-4 hr vs. untreated): No
- Kendall: Wbp1 (gene Wbp1, NM_016757_at, gene expression vs. output): Yes
- Wilcoxon: Zfp68 (gene Zfp68, NM_013844_at, DBP-4 hr vs. untreated): No
- Kendall: Zfp68 (gene Zfp68, NM_013844_at, gene expression vs. output): Yes
- Wilcoxon: Zfp90 (gene Zfp90, NM_011764_at, DBP-4 hr vs. untreated): No
- Kendall: Zfp90 (gene Zfp90, NM_011764_at, gene expression vs. output): Yes
- Wilcoxon: Zkscan3 (gene Zkscan3, NM_023685_at, DBP-4 hr vs. untreated): No
- Kendall: Zkscan3 (gene Zkscan3, NM_023685_at, gene expression vs. output): Yes
- Wilcoxon: Zkscan6 (gene Zkscan6, NM_026107_at, DBP-4 hr vs. untreated): No
- Kendall: Zkscan6 (gene Zkscan6, NM_026107_at, gene expression vs. output): Yes
- 1110032A04Rik NM_133675_at ≧2-Fold change (mouse, in vivo): No
- 1600029D21Rik (NM_029639_at) ≧2-Fold change (mouse, in vivo): Yes
- 2010002N04Rik (NM_134133_at) ≧2-Fold change (mouse, in vivo): Yes
- 2310016C08Rik (NM_023516_at) ≧2-Fold change (mouse, in vivo): Yes
- 2510002D24Rik NM_001033164_at ≧2-Fold change (mouse, in vivo): No
- 2510009E07Rik NM_001001881_at ≧2-Fold change (mouse, in vivo): No
- 2610528A11Rik XR_105647_at ≧2-Fold change (mouse, in vivo): No
- 1500015010Rik NM_024283_at ≧2-Fold change (mouse, in vivo): No
- 1810011010Rik (NM_026931_at) ≧2-Fold change (mouse, in vivo): Yes
- 3110079015Rik NM_028473_at ≧2-Fold change (mouse, in vivo): No
- A2m NM_175628_at ≧2-Fold change (mouse, in vivo): No
